Source: patent US5880256A, “Factor VIIa inhibitors from Kunitz domain proteins” (Genentech, Inc., priority 1995, dated 1999)
Positions of bridges follow the written chain, without caps; N, C: chain ends. No end group written: not given here.

How the values were obtained:
[1] = system: New Zealand white rabbits; assay: Cuticle bleeding time in the rabbit model; format: in vivo; settings: for bleeding compared to the saline control (in words): after 10 minutes
Description: Male New Zealand white rabbits (~4 kg) were anesthetized to surgical anesthesia plane with an IM injection of Ketamine / Xylaxine. The rabbits were placed supine on a restraining board, warmed to 37° C., and the neck and inner thigh area shaved. Teflon catheters were replaced in a marginal ear vein and femoral artery for drug delivery and sample collection respectively. Prior to treatment, blood samples were collected for coagulation tests (APTT and PT). Bleeding time was assessed from a cut made in the cuticle portion of a hind limb nail. Incisions were made in the neck region and the entire left common carotid artery and its branches were surgically isolated. An ultrasonic flow probe (Transonics®) was placed on the common carotid approximately 5 cm caudal to the common--internal bifurcation. After blood flow reached a stable baseline, drugs (saline or test compounds) were delivered via the marginal ear vein. A deflated embolectomy catheter (Fogarty®, 3F) was then introduced into the lumen of the common via an incision in the lingual branch. Blood flow through the artery was stopped briefly while the catheter was introduced and loosely secured with 2-0 silk tie at the incision site. After the catheter was in place and secure, blood flow was restored. The deflated balloon was advanced to within 2 mm of the flow probe and inflated with saline until resistance of the vessel wall was felt. The catheter was pulled back with a steady motion to the first branch and then deflated. This procedure was repeated a total of six times for each experimental animal, after which the catheter was removed. […] Over 40 minutes, blood samples were taken for APTT and PT measurements, cuticle bleeding times were assessed and blood flow through the carotid monitored. Duration of patency was defined as the total amount of time (maximum=40 minutes) that any measurable blood flow is detected in the artery. Patency rate refers to the percentage of animals tested who had carotid artery blood flow≥5 minutes. […] If any thrombus was present, it was removed, blotted and the weight recorded. […]

normal human plasma = assay: Activated partial thromboplastin time (APTT) assay, initiated by ellagic acid; format: biochemical
Description: For the activated partial thromboplastin time (APTT) assays, the activation time was set at 120 sec and acquisition time at 300 to 600 sec depending on the expected outcome of the assay. Citrated normal human plasma and inhibitor were incubated together. The sample (plasma and inhibitor) and activator (Instrumentation Laboratories Ellagic acid/Phospholipid mix Test Reagent) were automatically pipetted and incubated together for 2 min at 37° C., then CaCl2 was added and clotting time determined by means of optical assessment. The total incubation time of inhibitor with plasma was ca. 3 min before addition of activator, and 5 min before addition of CaCl2.

[2] = system: New Zealand white rabbits; assay: Rabbit deep medial injury model (carotid artery patency, thrombus weight); format: in vivo
Description: Male New Zealand white rabbits (~4 kg) were anesthetized to surgical anesthesia plane with an IM injection of Ketamine / Xylaxine. The rabbits were placed supine on a restraining board, warmed to 37° C., and the neck and inner thigh area shaved. Teflon catheters were replaced in a marginal ear vein and femoral artery for drug delivery and sample collection respectively. Prior to treatment, blood samples were collected for coagulation tests (APTT and PT). Bleeding time was assessed from a cut made in the cuticle portion of a hind limb nail. Incisions were made in the neck region and the entire left common carotid artery and its branches were surgically isolated. An ultrasonic flow probe (Transonics®) was placed on the common carotid approximately 5 cm caudal to the common--internal bifurcation. After blood flow reached a stable baseline, drugs (saline or test compounds) were delivered via the marginal ear vein. A deflated embolectomy catheter (Fogarty®, 3F) was then introduced into the lumen of the common via an incision in the lingual branch. Blood flow through the artery was stopped briefly while the catheter was introduced and loosely secured with 2-0 silk tie at the incision site. After the catheter was in place and secure, blood flow was restored. The deflated balloon was advanced to within 2 mm of the flow probe and inflated with saline until resistance of the vessel wall was felt. The catheter was pulled back with a steady motion to the first branch and then deflated. This procedure was repeated a total of six times for each experimental animal, after which the catheter was removed. […] Over 40 minutes, blood samples were taken for APTT and PT measurements, cuticle bleeding times were assessed and blood flow through the carotid monitored. Duration of patency was defined as the total amount of time (maximum=40 minutes) that any measurable blood flow is detected in the artery. Patency rate refers to the percentage of animals tested who had carotid artery blood flow≥5 minutes. At the end of the experiment the rabbit was euthanized and the carotid artery removed and opened. If any thrombus was present, it was removed, blotted and the weight recorded.
[Heparin was dosed as a 25 u/kg bolus followed by a continuous infusion of 1) 0.5 u/kg/min or 2) 1 u/kg/min. Other reagents were given as a 2 mg/kg IV bolus. With the exception of the patency data, values are expressed as means ±sem.]

Compound: VREVCSEQAEPGPCRAMMKRWYFDVTEGKCAPFIYGGCYGNRNNFDTEEYCAAVCGSA (disulfide 5-55, 14-38, 30-51) [IV-49C]
- bleeding compared to the saline control (in words) [1]: did not induce prolonged bleeding

Compound: APPI: Alzheimer's amyloid β-protein precursor inhibitor, 58 residue Kunitz domain, wild type (SEQ ID NO: 34) (VREVCSEQAETGPCRAMISRWYFDVTEGKCAPFFYGGCGGNRNNFDTEEYCMAVCGSA)
- Cuticle bleeding time, fold increase over pre dose ([1]; in vivo, iv, 2 mg/kg): 2.2 ± 0.6 fold
- APTT clotting time, fold prolongation (normal human plasma; 40 μM inhibitor, uninhibited clotting time 31 s): 3.6 fold
- APTT clotting time, fold prolongation (normal human plasma; ca. 7 μM inhibitor): ca. 3 fold
- Patency (%) ([2]; rabbit, 2 mg/kg IV bolus, animals with carotid blood flow ≥5 minutes): 40%
- Patency Duration ([2]; rabbit, 2 mg/kg IV bolus, maximum 40 minutes, mean ± sem): 13.4 ± 8.5 min
- Clot (mgs) ([2]; rabbit, 2 mg/kg IV bolus, thrombus weight, mean ± sem): 49.5 ± 18.2 mgs

Compound: Heparin
- patency and clot size compared to the saline control (in words) ([2]; rabbit deep medial injury model): significantly prolonged patency and reduced clot size
- Patency (%) ([2]; rabbit, Heparin 1: 25 u/kg bolus then 0.5 u/kg/min infusion): 67%
- Patency Duration ([2]; rabbit, Heparin 1: 25 u/kg bolus then 0.5 u/kg/min infusion, mean ± sem): 23.3 ± 6.7 min
- Patency (%) ([2]; rabbit, Heparin 2: 25 u/kg bolus then 1 u/kg/min infusion): 100%
- Patency Duration ([2]; rabbit, Heparin 2: 25 u/kg bolus then 1 u/kg/min infusion, mean ± sem): 35.2 ± 2.2 min

Compound: CC[C@H](C)[C@@H]1NC(=O)[C@H](CC(C)C)NC(=O)[C@H](C)NC(=O)[C@H](CCCNC(=N)N)NC(=O)[C@@H]2CSSC[C@@H]3NC(=O)CNC(=O)CNC(=O)[C@H](Cc4ccc(O)cc4)NC(=O)[C@H](Cc4ccccc4)NC(=O)[C@H](Cc4ccccc4)NC(=O)[C@@H]4CCCN4C(=O)[C@H](C)NC(=O)[C@H](CSSC[C@H](NC(=O)[C@H](Cc4ccc(O)cc4)NC(=O)[C@H](CCC(=O)O)NC(=O)[C@H](CCC(=O)O)NC(=O)[C@H]([C@@H](C)O)NC(=O)[C@H](CC(=O)O)NC(=O)[C@H](Cc4ccccc4)NC(=O)[C@H](CC(N)=O)NC(=O)[C@H](CC(N)=O)NC(=O)[C@H](CCCNC(=N)N)NC(=O)[C@H](CC(N)=O)NC(=O)CNC(=O)[C@H](Cc4ccc(O)cc4)NC3=O)C(=O)N[C@@H](C)C(=O)N[C@@H](C)C(=O)N[C@@H](C(C)C)C(=O)N[C@H](C(=O)NCC(=O)N[C@@H](CO)C(=O)N[C@@H](C)C(=O)O)CSSC[C@H](NC(=O)[C@@H](NC(=O)[C@H](CCC(=O)O)NC(=O)[C@H](CCCNC(=N)N)NC(=O)[C@@H](N)C(C)C)C(C)C)C(=O)N[C@@H](CO)C(=O)N[C@@H](CCC(=O)O)C(=O)N[C@@H](CCC(N)=O)C(=O)N[C@@H](C)C(=O)N[C@@H](CCC(=O)O)C(=O)N3CCC[C@H]3C(=O)NCC(=O)N3CCC[C@H]3C(=O)N2)NC(=O)[C@H](CCCCN)NC(=O)CNC(=O)[C@H](CCC(=O)O)NC(=O)[C@H]([C@@H](C)O)NC(=O)[C@H](C(C)C)NC(=O)[C@H](CC(=O)O)NC(=O)[C@H](Cc2ccccc2)NC(=O)[C@H](Cc2ccc(O)cc2)NC(=O)[C@H](Cc2c[nH]c3ccccc23)NC(=O)[C@H](CCCNC(=N)N)NC(=O)[C@H](CC(C)C)NC1=O [TF7I-C]
- bleeding compared to the saline control (in words) [1]: did not induce prolonged bleeding
